According to paper PMC3987113 (Toxicology and applied pharmacology, 2009):
Entries after “also recorded” stand apart in the source; their conditions may differ.

Key:
[1] = 300 μg/kg PCB126; ref Kopec et al. 2008; cited from earlier work
[2] = liver, PCB126; ref Kopec et al. 2008; cited from earlier work
[3] = test system: liver of immature, ovariectomized C57BL/6 mice; settings: ref Boverhof et al. 2005; Kopec et al. 2008; cited from earlier work
[4] = Body and liver weights, time course study; format: in vivo, C57BL/6 mice; settings: 300 mg/kg PCB153 or 30 μg/kg TCDD, mean ± SD, n=5; for Body weight gain: terminal body weight divided by body weight prior to dosing
[5] = Hepatic tissue level quantification by HRGC/HRMS; format: in vivo, C57BL/6 mice; settings: liver, 168 h vs 24 h; single gavage 300 mg/kg PCB153 or 30 μg/kg TCDD
[6] = test system: liver of immature, ovariectomized C57BL/6 mice; test: Liver histopathology; format: in vivo; settings: 300 mg/kg PCB153 or 30 μg/kg TCDD
hepatic gene expression [7] = test: Hepatic gene expression, Agilent 4 x 44K microarrays; format: in vivo, C57BL/6 mice; settings: hepatic mRNA, 30 μg/kg TCDD; maximum fold change, |fold change|≥1.5, P1(t)≥0.90
hepatic gene expression [8] = test: QRT-PCR verification of hepatic gene expression; format: in vivo, C57BL/6 mice
hepatic gene expression [9] = settings: hepatic mRNA, cDNA microarray, 30 μg/kg TCDD; maximum fold change, |fold change|≥1.5, P1(t)≥0.90; ref Boverhof et al. 2005; cited from earlier work

## Clc1ccc(-c2cc(Cl)c(Cl)c(Cl)c2)cc1Cl [PCB126, 3,3′,4,4′,5-pentachlorobiphenyl]
[1]
  Effect on relative liver weight (RLW): also increased RLW at later time points
[2]
  Hepatic level over time: continued to increase throughout the study, reaching the highest concentration at 7 days
[3]
  Hepatocyte cell size and number: not affected

## Clc1cc2c(cc1Cl)Oc1cc(Cl)c(Cl)cc1O2 [TCDD, 2,3,7,8-tetrachlorodibenzo-p-dioxin, reference compound]
[4]; 4 h
  Liver weight: 0.733 ± 0.044 g
  Relative liver weight: 0.054 ± 0.003
  Body weight gain: 1.0 ± 0.0
[4]; 4 h after single gavage
  Terminal body weight: 13.6 ± 0.8 g
[4]; 12 h
  Liver weight: 0.724 ± 0.025 g
  Relative liver weight: 0.056 ± 0.001
  Body weight gain: 1.1 ± 0.0
[4]; 12 h after single gavage
  Terminal body weight: 12.8 ± 0.7 g
[4]; 24 h
  Liver weight: 0.973 ± 0.088 g
  Relative liver weight: 0.068 ± 0.003
  Body weight gain: 1.1 ± 0.0
[4]; 24 h after single gavage
  Terminal body weight: 14.2 ± 0.9 g
[4]; 72 h
  Liver weight: 1.068 ± 0.060 g
  Relative liver weight: 0.071 ± 0.003
  Body weight gain: 1.2 ± 0.1
[4]; 72 h after single gavage
  Terminal body weight: 15.1 ± 0.7 g
[4]; 168 h
  Liver weight: 1.263 ± 0.080 g
  Relative liver weight: 0.072 ± 0.003
  Body weight gain: 1.3 ± 0.0
[4]; 168 h after single gavage
  Terminal body weight: 17.5 ± 0.4 g
[5]
  Decrease of hepatic level after 7 days: ~ 1.4 fold
[6]
  Hepatic lipid accumulation, Oil Red O staining: significant lipid accumulation
  Necrosis and immune (mixed) cell infiltration in liver: more dramatic vacuolization, and necrosis, as well as mixed cell infiltration
[6]; time course
  Hepatic inflammation: moderate multifocal inflammation; also recorded: instances of multifocal inflammation
[6]; Fig. 2 at 168 h
  Hepatocellular vacuolization, time course study: more severe; also recorded: slight to moderate vacuolization
Hepatic gene expression [7]
  TCDD fold change, Abcc3: 1.7 fold
  TCDD fold change, Acsl3: −2.3 fold
  TCDD fold change, Agpat4: no change
  TCDD fold change, Akr1b7: no change
  TCDD fold change, Akr1c20: −1.7 fold
  TCDD fold change, Aox1: 2.2 fold
  TCDD fold change, Cdca2: no change
  TCDD fold change, Cds2: no change
  TCDD fold change, Ces2: 2.5 fold
  TCDD fold change, Cyp2b9: no change
  TCDD fold change, Cyp2b10: 2.3 fold
  TCDD fold change, Cyp2b23: no change
  TCDD fold change, Cyp2c54: no change
  TCDD fold change, Cyp2c55: 1.8 fold
  TCDD fold change, Cyp3a25: no change
  TCDD fold change, Dhfr: no change
  TCDD fold change, Elovl6: −4.3 fold
  TCDD fold change, Fasn: −4.3 fold
  TCDD fold change, Fmo5: no change
  TCDD fold change, Gadd45a: −3.6 fold
  TCDD fold change, Gadd45b: 3.2 fold
  TCDD fold change, Gpx2: no change
  TCDD fold change, Gsta2: 5.9 fold
  TCDD fold change, Gstm4: 2.4 fold
  TCDD fold change, Gstt3: 1.5 fold
  TCDD fold change, Hmgcr: −2.6 fold
  TCDD fold change, Hsd17b2: 2.2 fold
  TCDD fold change, Insig2: −1.7 fold
  TCDD fold change, Mad1l1: no change
  TCDD fold change, Myc: 3.0 fold
  TCDD fold change, Nol3: no change
  TCDD fold change, Pla2g12a: 3.1 fold
  TCDD fold change, Slc1a4: no change
  TCDD fold change, Slc23a1: −1.7 fold
  TCDD fold change, Smpd3: −2.6 fold
  TCDD fold change, Srebf1: −2.3 fold
  TCDD fold change, Srebf2: −1.7 fold
  TCDD fold change, Ugdh: 2.7 fold
  TCDD fold change, Zwint: no change
Hepatic gene expression [8]; 30 μg/kg TCDD, Table 3 and Fig. 5C
  Regulation of PCB153-responsive (CAR/PXR) genes by TCDD: reciprocally modest; also recorded: minimal differential expression
Hepatic gene expression [8]; hepatic mRNA, time course, 30 μg/kg TCDD (Fig. 6A) or 300 mg/kg PCB153 (Fig. 6B)
  Cyp1a2 induction: ~ 30 fold
Hepatic gene expression [8]; hepatic mRNA, time course, 300 mg/kg PCB153 or 30 μg/kg TCDD (Fig. 6A-B)
  Elovl5 fold change: 2.2 fold
Hepatic gene expression [9]
  TCDD time course Boverhof et al., Abcc3 fold change: 1.5 fold
  TCDD time course Boverhof et al., Agpat4 fold change: no change
  TCDD time course Boverhof et al., Akr1b7 fold change: no change
  TCDD time course Boverhof et al., Cds2 fold change: no change
  TCDD time course Boverhof et al., Ces2 fold change: 1.6 fold
  TCDD time course Boverhof et al., Cyp2b10 fold change: no change
  TCDD time course Boverhof et al., Dhfr fold change: −1.5 fold
  TCDD time course Boverhof et al., Elovl6 fold change: −1.8 fold
  TCDD time course Boverhof et al., Fasn fold change: −1.9 fold
  TCDD time course Boverhof et al., Fmo5 fold change: no change
  TCDD time course Boverhof et al., Gadd45b fold change: 4.6 fold
  TCDD time course Boverhof et al., Gpx2 fold change: no change
  TCDD time course Boverhof et al., Gsta2 fold change: 7.2 fold
  TCDD time course Boverhof et al., Gstt3 fold change: no change
  TCDD time course Boverhof et al., Insig2 fold change: no change
  TCDD time course Boverhof et al., Myc fold change: 3.7 fold
  TCDD time course Boverhof et al., Nol3 fold change: no change
  TCDD time course Boverhof et al., Slc1a4 fold change: no change
  TCDD time course Boverhof et al., Srebf1 fold change: −2.1 fold
  TCDD time course Boverhof et al., Srebf2 fold change: 1.5 fold
  TCDD time course Boverhof et al., Ugdh fold change: 3.1 fold
[3]
  Hepatocyte cell size and number: not affected
